“Also recorded” adds a separate entry of the source.
Experiments:
locomotor activity = test: Treatment effect on locomotor activity during extinction/treatment; type: in vivo, mouse; conditions: over the treatment period; l-THP 3 mg/kg, naltrexone 0.1 mg/kg, alone or combined
Procedure: Over the course of extinction/treatment the animal's locomotor activity was recorded. The locomotion scores graphed represent the treatment locomotion with the baseline locomotion score subtracted.

[1] = PK of the drug-drug interaction between l-THP and cocaine in cocaine users; type: in vivo, human; conditions: cocaine users
Description: (§1) Data on safety of l-THP in six subjects of cocaine users was generated (Table 1). The major PD/PK parameters of the drug-drug interaction between l-THP and cocaine in cocaine users were compared between active drug and placebo groups. […] Since l-THP will be 10 fold more than LDN in the combination, the safety of l-THP is the major safety concern in the combination for human drug addicts.

cocaine users = test: Safety of l-THP in cocaine users: PD (blood pressure, heart rate); type: in vivo, human; conditions: for BP (Change from baseline %), first value of the pair / BP (Change from baseline %), second value of the pair / HR (Change from baseline %): n = 3
Description: as §1

[2] = test system: cocaine induced reinstatement of CPP; test: Cocaine induced reinstatement of CPP (mouse model of CPP); type: in vivo; conditions: conditioned with 10 mg/kg cocaine, reinstated with 5 mg/kg cocaine, l-THP 3 mg/kg, naltrexone 0.1 mg/kg, alone or combined
Procedure: Animals were conditioned using 10 mg/kg cocaine for 4 days, and reinstated using 5 mg/kg cocaine. Reinstatement was carried out 48 hours after CPP was extinct. The CPP score is calculated as a change in baseline from the cocaine conditioned chamber. A two way ANOVA followed by Bonferroni post test comparisons was used for analysis of the effect of treatment on cocaine reinstatement.
Fixed dose l-THP/LDN (3 mg/kg/0.1 mg/kg) were tested in mouse model of CPP.

cocaine addicted mice = test: Naltrexone induced withdrawal (global withdrawal score); type: in vivo; conditions: mice treated with 10 mg/kg cocaine over 4 days
Procedure: Animals were treated with 10 mg/kg cocaine over 4 days. On the 5th day animals were injected with different dose of Naltrexone and 3 mg/kg l-THP. After injection animals were monitored for withdrawal behaviors for 20 minutes. Total counts for jumping, teeth chattering, paw tremors and grooming with assigned points were used to calculate the global withdrawal score. A one way ANVOA followed by Bonferroni post test comparisons was used to determine the effect naltrexone dose on withdrawal (***p<0.001 and *p<0.05 respectively) n=5 for each group. Global Scores were calculated.
This effect was attributed to cocaine's up regulation of endogenous opioids and the significant blockade of opioid receptor by naltrexone.

[3] = cocaine users, first column group headed Post cocaine 0 min
[4] = cocaine users, second column group headed Post cocaine 0 min

SMILES	effect on locomotor activity (locomotion) (locomotor activity)	effect of l-THP pretreatment on the Cmax or AUC0-inf of cocaine ([1]; vs placebo pretreated)	AUC(0-inf) ([1]; human, in vivo, n = 2, mean only, analyte l-THP, read-out: I-THP AUC 0-inf) [µg·h/mL]	Cmax ([1]; human, in vivo, n = 2, mean only, analyte l-THP, read-out: I-THP Cmax) [µg/mL]	peak changes in heart rate (HR) and blood pressure (BP) (cocaine users; cocaine users)	BP (Change from baseline %), first value of the pair (cocaine users; [3]) [%]	BP (Change from baseline %), second value of the pair (cocaine users; [3]) [%]	HR (Change from baseline %) (cocaine users; [3]) [%]	BP (Change from baseline %), first value of the pair (cocaine users; [4]) [%]	BP (Change from baseline %), second value of the pair (cocaine users; [4]) [%]	HR (Change from baseline %) (cocaine users; [4]) [%]	safety and tolerability in cocaine users (cocaine users; six subjects of cocaine users, active drug vs placebo)	effect of treatment on cocaine reinstatement of CPP [2]	withdrawal, lower doses of naltrexone (cocaine addicted mice; naltrexone 1 mg/kg, 0.3 mg/kg and 0.1 mg/kg co-administered with l-THP (3 mg/kg))	withdrawal symptoms, high dose naltrexone (cocaine addicted mice; naltrexone 30 mg/kg or 15 mg/kg co-administered with l-THP (3 mg/kg))
COc1cc2c(cc1OC)[C@@H]1Cc3ccc(OC)c(OC)c3CN1CC2 [l-THP, levo-tetrahydropalmatine]	significant effect on locomotion during week 3 and week 4; also recorded: reduced locomotor activity significantly	does not increase	0.393	0.038	within acceptable margin	8 ± 9.3	10 ± 13	23.6 ± 27.1	5 ± 3	5 ± 2	8.5 ± 8.1	safe and well tolerated	significant attenuation	–	–
O=C1CC[C@@]2(O)[C@H]3Cc4ccc(O)c5c4[C@@]2(CCN3CC2CC2)[C@H]1O5 [naltrexone]	did not display significant effect	–	–	–	–	–	–	–	–	–	–	–	did not have significant effect	did not produce withdrawal	withdrawal symptoms occurred

From patent US10016413B2, “Combination dopamine antagonist and opiate receptor antagonist treatment of addictive behavior” (University of Maryland, Baltimore, priority 2012, dated 2018)
